Source: US4289645A (priority 1980, dated 1981)
Several values for one entry are separate records, joined by “and”; a condition that tells them apart may be missing. Identical values can stand only once. Like-named read-outs stand apart in the source and are kept apart here. One block for each compound: values may come before it.

Assays:
[1] = Test for identification of mu-amines compatible with hydroquinone (Example 6); format: physicochemical; parameters: key: An asterisk (*) in a column indicates a positive result; conditions: for Step 4: Not mu-Amine / Step 4: Possible mu-Amine: 10 g amine, 10 g hydroquinone, 80 g water; for Step 4: Not mu-Amine: precipitation after 3 min stirring; for Step 4: Possible mu-Amine: no precipitate after 3 min stirring; for Step 6: Possible mu-Amine: passes unhindered through 5 micron filter
Text: The steps of this test are as follows:
Step 1: To a 1 pint glass jar which can be equipped with a cover lid add 80.0 grams of demineralized water and 10.0 grams of the amine to be tested.
Step 2: Stir the contents of the jar for one minute, preferably via a magnetic stirrer. If the amine is a solid, stir until complete dissolution into the water is attained.
Step 4: Stir the contents of the jar for three minutes. If precipitation within the jar occurs, then the amine is not a mu-amine. If no precipitate formation within the jar is evident, the amine may possibly be a mu-amine, so proceed to Step 5.
Step 5: Seal the jar and stir vigorously for seven minutes.
Step 6: After stirring, filter the contents of the jar through a 5 micron filter paper via suction. […] If the contents of the jar pass unhindered through the filter paper, the amine may possibly be a mu-amine and Steps 7 and 8 should be performed.
Step 7: Remove a 1.0 ml aliquot from the filtration flask or receiver (i.e., an aliquot of the former jar contents) with a syringe.
Step 8: Inject the contents of the syringe into the room temperature oxygen scavenger apparatus described in Example 4 above which contains air-saturated, demineralized water and sufficient sodium hydroxide to result in a pH 9-10 range in the reaction flask. If at least 70% of the dissolved oxygen initially present in the air-saturated water is removed within one minute after injection, the amine is definitely a mu-amine. If at least 70% of the dissolved oxygen is not removed within one minute, then the amine is not a mu-amine.
Reported below in Table 7 are the results of tests using the above described procedure for various amines. An asterisk (*) in a column indicates a positive result.

[2] = Compatibility of amines with hydroquinone in solution (description); format: physicochemical
Text: To provide convenient single-drum treatments, it was decided to test-formulate various dioxo aromatic compounds with neutralizing amines.

[3] = Oxygen scavenging of hydroquinone/mu-amine in hot water flow system (Example 8); conditions: Table 10; 6.7 ppm hydroquinone + 6.7 ppm mu-amine, 78±1 °C, 3-5 psig, 240±10 s, pH 9.7
Text: The specific experimental conditions were:
Reaction Time=240±10 seconds
The initial oxygen levels are reported as parts per billion (ppb).

[4] = cited from earlier work; for % O2 Removed: Table 1, 78±3 °C, 4±1 psig, about 4 min, feedwater 58-100 ppm, initial O2 1.8-2.3 ppm; for oxygen scavenging in the test water: conclusion from Table 1
[5] = cited from earlier work
[6] = cited from earlier work; for % O2 Removed, 1 Minute: hydroquinone: pH 8.6, 22.5 °C, 0.94 mole/mole O2
[7] = cited from earlier work; remark: listed apart in the source
[8] = Oxygen scavenging of hydroquinone/mu-amine, ambient temperature (Example 7); conditions: Table 8; 60 seconds, 23-25 °C, 103 ppm hydroquinone + 103 ppm mu-amine
Experimental: The flask was filled with deionized water which had been stripped of some dissolved oxygen by bubbling nitrogen through a diffuser stone. The pH was adjusted to the desired level with sodium hydroxide. The flask was sealed with a rubber septum, the dissolved oxygen probe and the pH electrode. A magnetic stirrer bar was left in the flask for mixing. The mixer was turned on, and dissolved oxygen and temperature readings were recorded until the dissolved oxygen reached a constant value. Next, the appropriate quantity of additive was injected through the septum using a hypodermic syringe. The initial mole ratio of treatment to dissolved oxygen was determined by weighing feed chemical and measuring the oxygen concentration. […] Dissolved oxygen and temperature readings were then taken at appropriate time intervals.
Using the same apparatus and procedure as described in Example 4 above, oxygen scavenging experiments were performed by injecting 1 ml of stock solution into a glass vessel containing 1070 ml of air-saturated, demineralized water adjusted to the appropriate pH with 7 N sodium hydroxide. The results of these tests are given in Table 8 below in terms of % oxygen removal at 60 seconds. […] The final pH values indicated are for the test water.

[9] = for mu-amine required to effect dissolution: added to saturated aqueous hydroquinone (10.0 g hydroquinone, 89.5 g water)
Experimental: Volumes of mu-amines required to effect dissolution were recorded and converted to weights via density.

[10] = Oxygen scavenging at various concentrations and weight ratios of hydroquinone and mu-amine (Example 9)
Experimental: Using the same apparatus and procedure as described in Example 4 above, oxygen scavenging experiments were performed by injecting 1 ml of stock solution into a glass vessel containing 1070 ml of air-saturated, demineralized water adjusted to the appropriate pH with 7 N sodium hydroxide. […] The final pH values indicated are for the test water.
(§1) The stock solution concentrations are presented in terms of weight % aqueous. The stock solutions were each 100 grams total. […] The tests were conducted at ambient temperature (23°-25° C.).

[11] = Dissolution and storage stability of hydroquinone/methoxypropylamine solutions (Example 11); format: physicochemical
Experimental: The following 25 gram solutions were prepared and sealed in glass bottles (components listed in order of addition):
Fifty (50) grams of each of the following solutions were prepared in glass bottles, sealed and placed on a shaker for two hours: […]

[12] = Thermal stability of amines (description); format: physicochemical; conditions: of the amines tested
[13] = for % O2 Removed: 60 s
Experimental: as §1
The tests were conducted at ambient temperature (23°-25° C.).

rats = conditions: conclusion from Table 4; cited from earlier work
[14] = conclusion from Table 6; cited from earlier work
[15] = hydroquinone alone in water; cited from earlier work
[16] = high pressures; cited from earlier work
[17] = hydrazine: pH 9.2, 26.5 °C, 10.5 mole/mole O2
[18] = 1.5% mu-amine, 10.0% hydroquinone (6.67:1)
[19] = 90.0% mu-amine, 10.0% hydroquinone (1:9)

Step 4: Not mu-Amine [1]: * | compatibility with hydroquinone in solution [2]: precipitated out of solution
Compound: C1COCCN1 [Morpholine, reference compound]

Step 4: Possible mu-Amine [1]: * | Step 6: Possible mu-Amine [1]: *
Compound: CC(O)CN (stereo not drawn) [Monoisopropanolamine]
% O2 Removed [3]: 98%

Compound: C1CN2CCN1CC2 [Triethylenediamine, reference compound]
Step 4: Not mu-Amine [1]: *

Compound: Nc1ccccc1N [o-phenylenediamine]
% O2 Removed [4]: 10% | oxygen scavenging in the test water [4]: ineffective

Compound: NN [hydrazine]
% O2 Removed ([5]; control run 1: 1.6 ppm, pH 8.8, steam load 11, initial O2 13.0 ppb): 69% | % O2 Removed ([5]; control run 2: 1.1 ppm, pH 9.4, steam load 15, initial O2 4.0 ppb): 50% | % O2 Removed ([5]; control run 3: 1.2 ppm, pH 8.6, steam load 15, initial O2 6.0 ppb): 60% | % O2 Removed ([5]; control run 4: 1.0 ppm, pH 8.8, steam load 15, initial O2 5.8 ppb): 55% | % O2 Removed ([5]; control run 5: 0.8 ppm, pH 9.4, steam load 11, initial O2 3.5 ppb): 31% | % O2 Removed ([5]; control run 6: 1.6 ppm, pH 9.6, steam load 14, initial O2 4.0 ppb): 30% | % O2 Removed, 5 Minutes [6, 17]: 2% | % O2 Removed, 1 Minute [6, 17]: 1% | pH of maximum oxygen scavenging efficacy ([7]; in solution, Cohn and Powell 1954): 10.0-10.5 | rate of reaction with oxygen ([7]; low temperatures such as room temperature): very slow

Compound: Oc1cccc(O)c1 [resorcinol]
% O2 Removed [4]: 0% | oxygen scavenging in the test water [4]: ineffective

Step 4: Possible mu-Amine [1]: * | Step 6: Possible mu-Amine [1]: * | mu-amine required to effect dissolution [9]: 1.7 grams
Compound: CN(C)CCCN [Dimethylaminopropylamine]
% O2 Removed [8]: 76% | % O2 Removed At 60 Seconds [10, 18]: 94% | % O2 Removed At 60 Seconds ([10]; 30.0% mu-amine, 10.0% hydroquinone (1:3)): 99% | % O2 Removed At 60 Seconds [10, 19]: 98%

Step 4: Possible mu-Amine [1]: * | Step 6: Possible mu-Amine [1]: *
Compound: Dimethyl(iso)propanolamine
% O2 Removed [8]: 73%

Step 4: Possible mu-Amine [1]: * | Step 6: Possible mu-Amine [1]: * | lowest practical MOPA concentration in the mixture ([11]; aqueous 10% hydroquinone): 2% | mu-amine required to effect dissolution [9]: 1.7 grams | thermal stability [12]: most thermally stable
Compound: COCCCN [Methoxypropylamine]
% O2 Removed [3]: 99% | % O2 Removed At 60 Seconds [10, 18]: 96% | % O2 Removed At 60 Seconds ([10]; 2.0% mu-amine, 10.0% hydroquinone (5:1)): 96% | % O2 Removed At 60 Seconds ([10]; 3.0% mu-amine, 10.0% hydroquinone (3.33:1)): 96% | % O2 Removed At 60 Seconds ([10]; 15.0% mu-amine, 15.0% hydroquinone (1:1)): 95% | % O2 Removed At 60 Seconds ([10]; 20.0% mu-amine, 20.0% hydroquinone (1:1)): 98% | % O2 Removed At 60 Seconds ([10]; 30.0% mu-amine, 30.0% hydroquinone (1:1)): 98% | % O2 Removed At 60 Seconds ([10]; 40.0% mu-amine, 40.0% hydroquinone (1:1)): 94% | % O2 Removed At 60 Seconds [10, 19]: 94%

Compound: NCCO [Monoethanolamine]
Step 4: Possible mu-Amine [1]: * | Step 6: Possible mu-Amine [1]: * | % O2 Removed [8]: 75%

Step 4: Possible mu-Amine [1]: * | Step 6: Possible mu-Amine [1]: *
Compound: NCCNCCNCCN [Triethylenetetramine]
% O2 Removed [8]: 89%

Compound: Oc1ccc(O)cc1 [hydroquinone]
active hydroquinone concentration attainable in stable aqueous solution ([11]; 1 to 1 with methoxypropylamine, sealed storage 12 days): up to 40% | Dissolution time ([9]; 6.3 g hydroquinone in 89.5 g demineralized water, solutions #1, #2, #3): 23 min and 19 min and 21 min | MOPA required to dissolve hydroquinone ([9]; 10.0 g hydroquinone in neat MOPA): 12.5 grams | % O2 Removed [4]: 97% | oxygen scavenging in the test water [4]: at least equivalent to, if not better than, hydrazine | % O2 Removed ([13]; 0 methoxypropylamine, 1.0% hydroquinone): 9% | % O2 Removed ([13]; 0 methoxypropylamine, 3.0% hydroquinone): 17% | % O2 Removed ([13]; 0 methoxypropylamine, 6.0% hydroquinone): 27% | % O2 Removed ([13]; 1.0% methoxypropylamine, 1.0% hydroquinone): 10% | % O2 Removed ([13]; 1.0% methoxypropylamine, 6.0% hydroquinone): 78% | % O2 Removed ([13]; 3.0% methoxypropylamine, 3.0% hydroquinone): 74% | % O2 Removed ([13]; 6.0% methoxypropylamine, 1.0% hydroquinone): 17% | % O2 Removed ([13]; 6.0% methoxypropylamine, 6.0% hydroquinone): 93% | effect of mu-amine addition on oxygen scavenging efficacy ([13]; conclusion from Table 12): increases the oxygen scavenging efficacy | % O2 Removed ([5]; 1.9 ppm actives, pH 8.4, steam load 15, initial O2 8.0 ppb): 88% | % O2 Removed ([5]; 1.9 ppm actives, pH 8.4, steam load 15, initial O2 10.0 ppb): 90% | efficacy in treating boiler feedwater ([5]; conclusion from Tables 2 and 3): efficacious in treating boiler feedwater and compared favorably with hydrazine | toxicity versus hydrazine (rats): significantly less toxic as compared to hydrazine | reactivity at low temperature with oxygen versus hydrazine ([6]; conclusion from Table 5): superiority of hydroquinone, as compared to hydrazine | % O2 Removed, 1 Minute [6, 17]: 29% | thermal stability versus hydrazine [14]: superior thermal stability | aqueous hydroquinone solubility [15]: about 7%

Compound: NC1CCCCC1 [Cyclohexylamine, reference compound]
Step 4: Not mu-Amine [1]: * | compatibility with hydroquinone in solution [2]: precipitated out of solution

Step 4: Possible mu-Amine [1]: * | Step 6: Possible mu-Amine [1]: * | compatibility with hydroquinone in solution [2]: compatible with hydroquinone in solution
Compound: CCC(C)N (stereo not drawn) [sec-Butylamine]
% O2 Removed [8]: 74%

Compound: NCCCCCCN [Hexamethylenediamine, reference compound]
Step 4: Not mu-Amine [1]: *

Compound: Nc1ccc(N)cc1 [p-phenylenediamine]
% O2 Removed [4]: 35% | oxygen scavenging in the test water [4]: ineffective

Compound: O=S([O-])[O-].[Na+].[Na+] [sodium sulfite]
decomposition in the boiler [16]: decomposes in the boiler to form sulfur dioxide and hydrogen sulfide

Compound: NCCN [Ethylenediamine]
Step 4: Possible mu-Amine [1]: * | Step 6: Possible mu-Amine [1]: * | % O2 Removed [8]: 85%

Step 4: Possible mu-Amine [1]: * | Step 6: Possible mu-Amine [1]: *
Compound: CC(O)CNCC(C)O (stereo not drawn) [Diisopropanolamine]
% O2 Removed [8]: 86%

Step 4: Not mu-Amine [1]: * | compatibility with hydroquinone in solution [2]: insoluble mass
Compound: CC(C)(C)N [tert-Butylamine, reference compound]
